Patent US20250230138A1, “COMPOUNDS HAVING A T-STRUCTURE FORMED BY AT LEAST FOUR CYCLES FOR USE IN THE TREATMENT OF CANCER AND OTHER INDICATIONS” (TheRas, Inc., priority 2022, published 2025)
Read-outs that look alike come from different tables or passages of the source.

Legend:
[1] = system: pAKT in BT474 cells; assay: Cell-based pAKT HTRF assay in BT474 cells; settings: BT474 cells, 4 hr incubation, read-out: pAKT inhibition IC50 in BT474 cells
Procedure, shortened: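 The HTRF signal (excitation 320 nm, emission 615 nm) came from d2/Eu Cryptate antibodies added to lysates and incubated 4–24 h at room temperature. Those lysates were taken from cells treated for 4 hr with compound, top concentration 3 μM, in 0.25% DMSO.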

[2] = molecular target: Cys242 in human PIK3CA (157-299) (Homo sapiens (Human), UniProt P42336); assay: Covalent modification assay using MALDI-TOF MS; format: biochemical; settings: 4 h reaction time point
Sequence of Cys242 in human PIK3CA (157-299) (P42336 157-299): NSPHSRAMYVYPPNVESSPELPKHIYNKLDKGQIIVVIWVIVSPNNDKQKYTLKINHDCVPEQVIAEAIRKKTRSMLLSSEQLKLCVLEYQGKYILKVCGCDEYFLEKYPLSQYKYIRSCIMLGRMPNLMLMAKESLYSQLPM
Procedure, shortened: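 Covalent adduct formation was read by linear-mode MALDI-TOF with sinapinic acid matrix, reported as modified-protein peak height divided by total protein peak heights. Reactions held PIK3CA (157-299) at 1 or 3.33 μM in HEPES/NaCl/MgCl2 buffer, pH 7.3, sampled after 15 min to 4 h at room temperature.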

[3] = Homo sapiens, BT-474, Compounds 10-999
[4] = 3.33 μM protein target, 1:7.5 protein to compound ratio (compounds 1-852)
[5] = 1 μM protein target, 1:5 protein to compound ratio (compounds 853-1279)

Row | Compound | IC50 [1, 3] | % of modification [2, 4] | IC50 ([1]; Compounds 10-999) | IC50 ([1]; Compounds 1000-1279) | % of modification [2, 5]
1 | C=CC(=O)N1CCc2nc(-c3nc(-c4cnn(C5CNC5)c4)c4ccsc4c3-c3ccc(F)cc3OCCOC)sc2C1 [Compound 132, 1-[2-[4-[1-(azetidin-3-yl)pyrazol-4-yl]-7-[4-fluoro-2-(2-methoxyethoxy)phenyl]thieno[3,2-c]pyridin-6-yl]-6,7-dihydro-4H-thiazolo[5,4-c]pyridin-5-yl]prop-2-en-1-one] | 100 to 1000 nM | A (percent of modification of PIK3CA protein ≥75%) | – | – | –
2 | C=CC(=O)N1CCn2nc(-c3nc(-c4ccc(=O)n(C)c4)ncc3-c3ccc(F)cc3OC(C)C)cc2C1 [Compound 337, 5-[5-(4-fluoro-2-isopropoxy-phenyl)-4-(5-prop-2-enoyl-6,7-dihydro-4H-pyrazolo [1,5-a]pyrazin-2-yl)pyrimidin-2-yl]-1-methyl-pyridin-2-one] | > 3000 nM | B (50%<percent of modification <75%) | – | – | –
3 | C=CC(=O)N1CCc2nc(-c3nc(-c4ccc5c(c4)CCNC5)c4c(F)csc4c3-c3ccc(F)cc3OC)sc2C1 [Compound 274, 1-[2-[3-fluoro-7-(4-fluoro-2-methoxy-phenyl)-4-(1,2,3,4-tetrahydroisoquinolin-6-yl)thieno[3,2-c]pyridin-6-yl]-6,7-dihydro-4H-thiazolo[5,4-c]pyridin-5-yl]prop-2-en-1-one] | 100 to 1000 nM | A (percent of modification of PIK3CA protein ≥75%) | – | – | –
4 | C=CC(=O)N1CCc2ncc(-c3nc(-c4cnn(CC(F)F)c4)c4ccsc4c3-c3c(F)cc(F)cc3OCCOC)cc2C1 [Compound 385] | – | A (percent of modification of PIK3CA protein ≥75%) | < 100 nM | – | –
5 | C=CC(=O)N1CCn2nc(-c3nc(-c4cnnc(C)c4)c4ccsc4c3-c3c(F)cc(F)cc3OCCOC)cc2C1C (stereo not drawn) [Compound 790] | – | A (percent of modification of PIK3CA protein ≥75%) | < 100 nM | – | –
6 | C=CC(=O)N1CCn2nc(-c3nc(-c4cccc(CCN(C)C)c4)c4ccsc4c3-c3c(F)cc(F)cc3OCCOC)cc2C1C (stereo not drawn) [Compound 1084] | – | – | – | < 100 nM | A (percent of modification of PIK3CA protein ≥75%)
7 | C=CC(=O)N1CCn2nc(-c3nc(-c4cnn(C5CN(C)C5)c4)c4ccsc4c3-c3c(F)cc(F)cc3OCC(C)O)cc2C1C (stereo not drawn) [Compound 992] | – | – | < 100 nM | – | A (percent of modification of PIK3CA protein ≥75%)
8 | C=CC(=O)N1CCn2nc(-c3nc(-c4ccc5c(c4)C(=O)NC5)c4ccsc4c3-c3c(F)cc(F)cc3OC)cc2C1C (stereo not drawn) [Compound 1117] | – | – | – | < 100 nM | A (percent of modification of PIK3CA protein ≥75%)
9 | C=CC(=O)N1CCc2nc(-c3nc(-c4ccc5c(c4)CNC5=O)c4ccsc4c3-c3c(F)cc(F)cc3OCCO)sc2C1 (single isomer, unassigned) [Compound 1033] | – | – | – | > 1000 nM | D (percent of modification <25%)
10 | C=CC(=O)N1Cc2cc(-c3nc(-c4ccc5c(c4)CNC5=O)c4ccsc4c3-c3c(F)cc(F)cc3OCCO)nn2CC1C (stereo not drawn) [Compound 904] | – | – | < 100 nM | – | A (percent of modification of PIK3CA protein ≥75%)
11 | C=CC(=O)N1Cc2cc(-c3nc(-c4cnn(C)c4)c4ccsc4c3-c3c(F)cc(F)cc3OCCO)nn2[C@@H](C)C1 [Compound 567] | – | A (percent of modification of PIK3CA protein ≥75%) | < 100 nM | – | –
12 | C=CC(=O)N1Cc2cc(-c3nc(-c4cnn(CC(C)(C)O)c4)c4ccsc4c3-c3c(F)cc(F)cc3OC(C)C)nn2[C@@H](C)C1 [Compound 493] | – | A (percent of modification of PIK3CA protein ≥75%) | < 100 nM | – | –
13 | C=C(F)C(=O)N1CCn2nc(-c3nc(-c4ccc5c(c4)CCN(C)C5)c4ccsc4c3-c3c(F)cc(F)cc3OCC(C)O)cc2C1 (stereo not drawn) [Compound 527] | – | B (50%<percent of modification <75%) | 100 to 1000 nM | – | –
14 | C=CC(=O)N1Cc2cc(-c3nc(-c4cnn(C)c4)c4ccsc4c3-c3c(F)cc(F)cc3OCCOC)nn2CC1C (stereo not drawn) [Compound 469] | – | A (percent of modification of PIK3CA protein ≥75%) | < 100 nM | – | –
15 | C=CC(=O)N1CCn2nc(-c3nc(-c4cnn(C)c4)c4ccsc4c3-c3ccc(F)cc3OCCOC)nc2C1 [Compound 191] | – | A (percent of modification of PIK3CA protein ≥75%) | < 100 nM | – | –
16 | C=CC(=O)N1Cc2cc(-c3nc(-c4cnn(C)c4)c4ccsc4c3-c3c(F)cc(F)cc3OCCO)nn2C[C@H]1C [Compound 674] | – | A (percent of modification of PIK3CA protein ≥75%) | < 100 nM | – | –
17 | C=CC(=O)N1CCn2nc(-c3nc(-c4ccc5ncn(C)c5c4)c4ccsc4c3-c3c(F)cc(F)cc3OCCO)cc2[C@H]1C [Compound 653] | – | B (50%<percent of modification <75%) | < 100 nM | – | –
18 | C=CC(=O)N1CCn2nc(-c3nc(-c4ccc5c(c4)CCN(C)C5)c4ccsc4c3-c3ccc(F)cc3OC)cc2C1 [Compound 265] | – | A (percent of modification of PIK3CA protein ≥75%) | < 100 nM | – | –
